#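 Compound exposure: 48 hours, 5 concentrations, 96-well plates. GI50 marks 50% less growth. At the TGI there is no net growth.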
# What was measured:
# Assay in all cases: DTP human tumour cell line panel, 48 h
# 786-0 renal = tested on: 786-0 renal
# A498 renal = tested on: A498 renal
# A549 NSCLC = tested on: A549 NSCLC
# ACHN renal = tested on: ACHN renal
# BT-549 breast = tested on: BT-549 breast
# CAKI-1 renal = tested on: CAKI-1 renal
# CCRF-CEM leukemia = tested on: CCRF-CEM leukemia
# COLO 205 colon = tested on: COLO 205 colon
# DU-145 prostate = tested on: DU-145 prostate
# EKVX NSCLC = tested on: EKVX NSCLC
# HCC-2998 colon = tested on: HCC-2998 colon
# HCT-116 colon = tested on: HCT-116 colon
# HCT-15 colon = tested on: HCT-15 colon
# HL-60(TB) leukemia = tested on: HL-60(TB) leukemia
# HOP-62 NSCLC = tested on: HOP-62 NSCLC
# HOP-92 NSCLC = tested on: HOP-92 NSCLC
# HS 578T breast = tested on: HS 578T breast
# HT29 colon = tested on: HT29 colon
# IGROV1 ovarian = tested on: IGROV1 ovarian
# K-562 leukemia = tested on: K-562 leukemia
# KM12 colon = tested on: KM12 colon
# LOX IMVI melanoma = tested on: LOX IMVI melanoma
# M14 melanoma = tested on: M14 melanoma
# MALME-3M melanoma = tested on: MALME-3M melanoma
# MCF7 breast = tested on: MCF7 breast
# MDA-MB-231 breast = tested on: MDA-MB-231 breast
# MDA-MB-435 = tested on: MDA-MB-435
# MDA-MB-468 breast = tested on: MDA-MB-468 breast
# MOLT-4 leukemia = tested on: MOLT-4 leukemia
# NCI-H226 lung = tested on: NCI-H226 lung
# NCI-H23 lung = tested on: NCI-H23 lung
# NCI-H460 lung = tested on: NCI-H460 lung
# NCI-H522 lung = tested on: NCI-H522 lung
# NCI/ADR-RES ovarian = tested on: NCI/ADR-RES ovarian
# OVCAR-3 ovarian = tested on: OVCAR-3 ovarian
# OVCAR-4 ovarian = tested on: OVCAR-4 ovarian
# OVCAR-5 ovarian = tested on: OVCAR-5 ovarian
# OVCAR-8 ovarian = tested on: OVCAR-8 ovarian
# PC-3 prostate = tested on: PC-3 prostate
# RPMI-8226 leukemia = tested on: RPMI-8226 leukemia
# RXF 393 renal = tested on: RXF 393 renal
# SF-268 CNS = tested on: SF-268 CNS
# SF-295 CNS = tested on: SF-295 CNS
# SF-539 CNS = tested on: SF-539 CNS
# SK-MEL-2 melanoma = tested on: SK-MEL-2 melanoma
# SK-MEL-28 melanoma = tested on: SK-MEL-28 melanoma
# SK-MEL-5 melanoma = tested on: SK-MEL-5 melanoma
# SK-OV-3 ovarian = tested on: SK-OV-3 ovarian
# SN12C renal = tested on: SN12C renal
# SNB-19 CNS = tested on: SNB-19 CNS
# SNB-75 CNS = tested on: SNB-75 CNS
# SR leukemia = tested on: SR leukemia
# SW-620 colon = tested on: SW-620 colon
# T-47D breast = tested on: T-47D breast
# TK-10 renal = tested on: TK-10 renal
# U251 CNS = tested on: U251 CNS
# UACC-257 melanoma = tested on: UACC-257 melanoma
# UACC-62 melanoma = tested on: UACC-62 melanoma
# UO-31 renal = tested on: UO-31 renal
smiles,measurement,setting,value
O=C1Nc2cc(-c3ccc(NS(=O)(=O)c4ccc(C(F)(F)F)cc4)cc3)ccc2/C1=C/c1ccc[nH]1,GI50,786-0 renal,2550 nM
same,TGI,786-0 renal,6.54 µM
same,GI50,A498 renal,1990 nM
same,TGI,A498 renal,7.78 µM
same,GI50,A549 NSCLC,1310 nM
same,TGI,A549 NSCLC,2920 nM
same,GI50,ACHN renal,2190 nM
same,TGI,ACHN renal,5.31 µM
same,GI50,BT-549 breast,1960 nM
same,TGI,BT-549 breast,5.54 µM
same,GI50,CAKI-1 renal,2570 nM
same,TGI,CAKI-1 renal,11.1 µM
same,GI50,CCRF-CEM leukemia,2270 nM
same,TGI,CCRF-CEM leukemia,6.82 µM
same,GI50,COLO 205 colon,2420 nM
same,TGI,COLO 205 colon,8.25 µM
same,GI50,DU-145 prostate,1870 nM
same,TGI,DU-145 prostate,4 µM
same,GI50,EKVX NSCLC,123 nM
same,TGI,EKVX NSCLC,4.13 µM
same,GI50,HCC-2998 colon,1910 nM
same,TGI,HCC-2998 colon,4.92 µM
same,GI50,HCT-116 colon,1820 nM
same,TGI,HCT-116 colon,3.46 µM
same,GI50,HCT-15 colon,1420 nM
same,TGI,HCT-15 colon,3.26 µM
same,GI50,HL-60(TB) leukemia,2900 nM
same,TGI,HL-60(TB) leukemia,10.7 µM
same,GI50,HOP-62 NSCLC,1660 nM
same,TGI,HOP-62 NSCLC,4.7 µM
same,GI50,HOP-92 NSCLC,1100 nM
same,TGI,HOP-92 NSCLC,3.79 µM
same,GI50,HS 578T breast,1960 nM
same,TGI,HS 578T breast,10.3 µM
same,GI50,HT29 colon,2210 nM
same,TGI,HT29 colon,5.14 µM
same,GI50,IGROV1 ovarian,3.31 µM
same,TGI,IGROV1 ovarian,15 µM
same,GI50,K-562 leukemia,2480 nM
same,TGI,K-562 leukemia,11 µM
same,GI50,KM12 colon,1940 nM
same,TGI,KM12 colon,7.83 µM
same,GI50,LOX IMVI melanoma,1630 nM
same,TGI,LOX IMVI melanoma,2980 nM
same,GI50,M14 melanoma,3.11 µM
same,TGI,M14 melanoma,13 µM
same,GI50,MALME-3M melanoma,3.05 µM
same,TGI,MALME-3M melanoma,13.6 µM
same,GI50,MCF7 breast,81.8 nM
same,TGI,MCF7 breast,1470 nM
same,GI50,MDA-MB-231 breast,2280 nM
same,TGI,MDA-MB-231 breast,8.29 µM
same,GI50,MDA-MB-435,1860 nM
same,TGI,MDA-MB-435,3.95 µM
same,GI50,MDA-MB-468 breast,31.1 nM
same,TGI,MDA-MB-468 breast,309 nM
same,GI50,MOLT-4 leukemia,2490 nM
same,TGI,MOLT-4 leukemia,10.8 µM
same,GI50,NCI-H226 lung,1100 nM
same,TGI,NCI-H226 lung,6.79 µM
same,GI50,NCI-H23 lung,1070 nM
same,TGI,NCI-H23 lung,2830 nM
same,GI50,NCI-H460 lung,437 nM
same,TGI,NCI-H460 lung,1770 nM
same,GI50,NCI-H522 lung,1440 nM
same,TGI,NCI-H522 lung,3.32 µM
same,GI50,NCI/ADR-RES ovarian,2590 nM
same,TGI,NCI/ADR-RES ovarian,8.6 µM
same,GI50,OVCAR-3 ovarian,1430 nM
same,TGI,OVCAR-3 ovarian,2920 nM
same,GI50,OVCAR-4 ovarian,1100 nM
same,TGI,OVCAR-4 ovarian,7.33 µM
same,GI50,OVCAR-5 ovarian,1800 nM
same,TGI,OVCAR-5 ovarian,7.06 µM
same,GI50,OVCAR-8 ovarian,1910 nM
same,TGI,OVCAR-8 ovarian,4.07 µM
same,GI50,PC-3 prostate,1570 nM
same,TGI,PC-3 prostate,4.83 µM
same,GI50,RPMI-8226 leukemia,1330 nM
same,TGI,RPMI-8226 leukemia,4.25 µM
same,GI50,RXF 393 renal,1960 nM
same,TGI,RXF 393 renal,4.37 µM
same,GI50,SF-268 CNS,1720 nM
same,TGI,SF-268 CNS,3.86 µM
same,GI50,SF-295 CNS,2040 nM
same,TGI,SF-295 CNS,4.67 µM
same,GI50,SF-539 CNS,1430 nM
same,TGI,SF-539 CNS,3.26 µM
same,GI50,SK-MEL-2 melanoma,3.14 µM
same,TGI,SK-MEL-2 melanoma,12.2 µM
same,GI50,SK-MEL-28 melanoma,2260 nM
same,TGI,SK-MEL-28 melanoma,5.68 µM
same,GI50,SK-MEL-5 melanoma,4.13 µM
same,TGI,SK-MEL-5 melanoma,15.6 µM
same,GI50,SK-OV-3 ovarian,2200 nM
same,TGI,SK-OV-3 ovarian,11.6 µM
same,GI50,SN12C renal,1590 nM
same,TGI,SN12C renal,3.17 µM
same,GI50,SNB-19 CNS,2530 nM
same,TGI,SNB-19 CNS,11.3 µM
same,GI50,SNB-75 CNS,2290 nM
same,TGI,SNB-75 CNS,13.3 µM
same,GI50,SR leukemia,1970 nM
same,TGI,SR leukemia,7 µM
same,GI50,SW-620 colon,1870 nM
same,TGI,SW-620 colon,3.68 µM
same,GI50,T-47D breast,230 nM
same,TGI,T-47D breast,3.86 µM
same,GI50,TK-10 renal,1270 nM
same,TGI,TK-10 renal,6.71 µM
same,GI50,U251 CNS,1610 nM
same,TGI,U251 CNS,3.12 µM
same,GI50,UACC-257 melanoma,2390 nM
same,TGI,UACC-257 melanoma,7.33 µM
same,GI50,UACC-62 melanoma,2130 nM
same,TGI,UACC-62 melanoma,9.73 µM
same,GI50,UO-31 renal,1510 nM
same,TGI,UO-31 renal,10.3 µM

# Source: PubChem BioAssay (NCI)
